Source: patent publication US11866416B2, “Streptococcus mutans glucosyl transferase inhibitors for dental caries therapy” (UAB Research Foundation, priority 2018, dated 2024)
Values after ≈ are worked out from the molar mass of the structure shown. Read-outs that look alike come from different tables or passages of the source.

Experiments:
S. mutans = test: microbe, parasite or virus in culture; assay type: cell-based, Streptococcus mutans; settings: for MIC50: Streptococcus mutans, >300 = no inhibition up to 300 μM, read-out: Growth Inhibition MIC50
Method: Cell viability of S. mutans, S. gordonii, S. sanguinis, Aggregatibacter actinomycetemcomitans and Actinomyces. […] The number of colony-forming units (CFU) per milliliter of each sample treated with selected compounds at different concentrations was enumerated after incubation for 24 h at 37° C. and compared to the values obtained from the DMSO control group. Overnight broth cultures were transferred by 1:50 dilutions into fresh THB medium and were allowed to grow until mid-exponential phase (OD470 nm 0.6) before transfer to 96-well plates containing desired concentration of the compound. After 16 h incubation, bacterial growth was measured at OD470, and normalized to the DMSO control (100%).
Cell viability of S. mutans and commensal S. gordonii and S. sanguinis. Effects of lead small molecules on cell viability were examined. The number of colony-forming units (CFU) per milliliter for each compound at different concentrations was determined after incubation for 24 h at 37° C. and compared to the values obtained from the DMSO control group.
Cell viability of S. mutans and commensal S. gordonii and S. sanguinis. […] DMSO served as a control group and provided a relative comparison for the number of colony-forming units (CFU) per milliliter for each compound at different concentrations was determined after incubation for 24 h at 37° C. The final concentration of DMSO used in the assays was 1%.

S. mutans biofilm = S. mutans biofilm formation and inhibition assay (96-well plates, crystal violet); assay type: cell-based, Streptococcus mutans
Method: Biofilm assays using 96-well flat-bottom polystyrene microtiter plates were performed to evaluate S. mutans biofilm formation at various conditions as described (Liu et al. (2011) Antimicrobial Agents and Chemotherapy 55, 2679; Zhang et al. (2015) International Journal of Antimicrobial Agents 46, 174), the disclosures of which are incorporated herein by reference in their entirety). Each assay was replicated three times. Compounds that inhibited biofilm formation at minimum concentration (MBIC) were determined by serial dilutions.
S. mutans biofilm formation and inhibition assays. […] Each assay was replicated three times. Minimum biofilm inhibitory concentration (MBIC) of compounds was determined by serial dilutions.
S. mutans biofilm formation and inhibition assays. Biofilm assays using 96-well flat-bottom polystyrene microtiter plates were performed to evaluate S. mutans biofilm formation at various conditions as described. Each assay was replicated […]. Compounds that inhibited 50% biofilm formation were determined by serial dilutions.
S. mutans biofilm formation and inhibition assays. A well-established protocol to study S. mutans biofilm formation in 96-well flat-bottom polystyrene microtiter plates was used, in triplicate (Mattos-Graner, R. O.; Napimoga, M. H.; Fukushima, K.; Duncan, M. J.; Smith, D. J., Comparative analysis of Gtf isozyme production and diversity in isolates of Streptococcus mutans with different biofilm growth phenotypes. Journal of clinical microbiology 2004, 42 (10), 4586-4592). The stock solutions were made up in 100% DMSO, and final concentration of DMSO used in the assays was 1%. Minimum biofilm inhibitory concentration (MBIC) of compounds was determined by serial dilutions.

[1] = Streptococcus mutans, Table 1, >500 = no inhibition up to 500 μM, read-out: Biofilm Inhibition IC50
[2] = Streptococcus mutans, Table 2, read-out: Biofilm Inhibition IC50
[3] = Streptococcus mutans, Table 3, read-out: Biofilm Inhibition IC50
[4] = Table 6, chalcones, 200 μM, NI = no inhibition
[5] = Streptococcus mutans, Table 5, >500 = no inhibition up to 500 μM, read-out: Biofilm Inhibition IC50

Structure (SMILES)	MIC50 (S. mutans; Table 2) [µM]	IC50 (S. mutans biofilm; [1]) [µM]	IC50 (S. mutans biofilm; [2]) [µM]	other results
COC(=O)c1cccc(NC(=O)c2cnc3ccccc3c2)c1 [AA]	> 300	147	147	–
COC(=O)c1ccc(NC(=O)c2cc3cc([N+](=O)[O-])ccc3o2)cc1 [AC]	> 300	144	144	–
COC(=O)c1cccc(NC(=O)c2cc3cc([N+](=O)[O-])ccc3o2)c1 [AE]	> 300	2.7	2.7	–
NC(=O)c1ccccc1OC(=O)c1cc2ccccc2s1 [AF]	–	> 500	–	–
NC(=O)c1ccc(NC(=O)c2cc3cc([N+](=O)[O-])ccc3o2)cc1 [AG]	–	239	–	–
NCc1ccccc1NC(=O)c1ccc2ccccc2c1 [AH]	> 300	160	160	–
CC(C)(C)OC(=O)NCc1ccccc1NC(=O)c1cc2cc([N+](=O)[O-])ccc2s1 [AJ]	> 300	51.5	51.5	–
NCc1ccccc1NC(=O)c1cccc2ccccc12 [AN]	> 300	93.3	93.3	–
CC(C)(C)OC(=O)NCc1ccccc1NC(=O)c1ccc2ccccc2c1 [AO]	> 300	56.8	56.8	–
COc1cc(OC)c(-c2oc3ccccc3c(=O)c2O)cc1OC [AP-I-240]	–	–	–	MIC50 (S. mutans; Table 3, NI = no inhibition up to 400 μM): 15.3 ± 3 µM (≈ 5.02 µg/mL); IC50 (S. mutans biofilm; [3]): 10.1 ± 1 µM
CC(C)(C)OC(=O)NCc1ccccc1NC(=O)c1ccc2ccccc2n1 [AP]	> 300	67.5	67.5	–
NC(=O)c1cccc(NC(=O)c2ccc(-c3ccccc3)cc2)c1 [AR]	> 300	79.9	79.9	–
NC(=O)c1ccccc1NC(=O)c1ccc2ccccc2c1 [AS]	–	84.1	–	–
NC(=O)c1cccc(NC(=O)c2ccc3ccccc3n2)c1 [AV]	> 300	111	111	–
NC(=O)c1ccc(NC(=O)c2ccc3ccccc3c2)cc1 [AW]	–	> 500	–	–
COC(=O)c1ccccc1NC(=O)c1ccc2ccccc2c1 [AZ]	> 300	121	121	–
NC(=O)c1ccccc1OC(=O)c1cc2cc([N+](=O)[O-])ccc2o1 [BA]	–	279	–	–
COC(=O)c1ccccc1NC(=O)c1cc2cc([N+](=O)[O-])ccc2o1 [BB]	> 300	71.4	71.4	–
COC(=O)c1ccccc1NC(=O)c1ccc2ccccc2n1 [BD]	> 300	89.5	89.5	–
COC(=O)c1ccccc1NC(=O)c1cc2ccccc2s1 [BE]	> 300	74.9	74.9	–

Structure (SMILES)	MIC50 (S. mutans; Table 2) [µM]	IC50 (S. mutans biofilm; [1]) [µM]	IC50 (S. mutans biofilm; [2]) [µM]	other results
COC(=O)c1ccccc1NC(=O)c1cnc2ccccc2c1 [BF]	–	446	–	–
O=C(Nc1ccccc1I)c1cnc2ccccc2c1 [BG]	–	> 500	–	–
CC(C)c1ccccc1NC(=O)c1cc2cc([N+](=O)[O-])ccc2s1 [BJ]	–	262	–	–
CC(C)c1ccccc1NC(=O)c1cnc2ccccc2c1 [BK]	–	> 500	–	–
CCc1ccccc1NC(=O)c1cc2cc([N+](=O)[O-])ccc2s1 [BL]	> 300	158	158	–
O=C(Nc1ccccc1F)c1cc2cc([N+](=O)[O-])ccc2s1 [BM]	> 300	162	162	–
NC(=O)c1cccc(NC(=O)c2ccc3ccccc3c2O)c1 [BP]	–	270	–	–
NC(=O)c1ccccc1NC(=O)c1cccc2ccccc12 [BQ]	–	446	–	–
NC(=O)c1ccc(NC(=O)c2cccc3ccccc23)cc1 [BR]	> 300	167	167	–
Cc1ccc(S(=O)(=O)Nc2ccccc2N)cc1 [BU]	–	> 500	–	–
NCc1cccc(NC(=O)c2cc3ccccc3s2)c1 [BX]	> 300	209	209	–
COc1ccc2[nH]c(C(=O)Nc3ccc(C(N)=O)cc3)cc2c1 [BY]	–	> 500	–	–
COC(=O)c1ccc(NC(=O)c2cc3cc([N+](=O)[O-])ccc3[nH]2)cc1 [BZ]	> 300	196	–	–
O=C(/C=C/c1cccc(O)c1)c1ccccc1O [Compound 2]	–	–	–	Growth inhibition 200 μM (%) (S. mutans; [4]): 86 ± 0.5%; IC50 (S. mutans; Table 6, chalcones, NI = no inhibition, read-out: S. mutans Growth IC50): 32 ± 0.3 µM; Biofilm inhibition 200 μM (%) (S. mutans biofilm; [4]): 84 ± 3%; IC50 (S. mutans biofilm; Table 6, chalcones, read-out: S. mutans Biofilm IC50): 64 ± 4 µM
O=C(Nc1ccccc1)c1cc2cc([N+](=O)[O-])ccc2s1 [Compound 3D]	–	> 500	–	IC50 (S. mutans biofilm; [5]): > 500 µM
NC(=O)c1ccccc1NC(=O)c1cc2ccccc2[nH]1 [Compound 3E]	–	> 500	–	–
NC(=O)c1ccccc1NC(=O)c1cc2cc([N+](=O)[O-])ccc2[nH]1 [Compound 3H]	–	> 500	–	–
COc1ccc(/C=C/C(=O)c2ccc3c(c2)OCO3)cc1O [Compound 14]	–	–	–	effect on S. mutans biofilm in the preliminary screen (S. mutans biofilm; chalcones, 200 μM): no anti-biofilm effects
O=c1c(O)c(-c2cc(O)c(O)c(O)c2)oc2cc(O)ccc12 [PAY]	–	–	–	IC50 (S. mutans biofilm; [3]): 74.5 ± 9.8 µM
O=c1c(O)c(-c2ccc(O)cc2)oc2ccccc12 [SN-II-78]	–	–	–	IC50 (S. mutans biofilm; [3]): 200 ± 10 µM

The next lines start with results.

MIC50 (S. mutans; Table 2) [µM]	IC50 (S. mutans biofilm; [1]) [µM]	IC50 (S. mutans biofilm; [2]) [µM]	Structure (SMILES)	other results
> 300	31.4	31.4	COC(=O)c1cccc(NC(=O)c2cc3cc([N+](=O)[O-])ccc3[nH]2)c1 [AB]	–
> 300	63.7	63.7	Cc1ccc(S(=O)(=O)Nc2cccc(NC(=O)c3cc4cc([N+](=O)[O-])ccc4s3)c2)cc1 [AD]	–
> 300	43.4	43.4	CC(C)(C)OC(=O)NCc1ccccc1NC(=O)c1cc2ccccc2s1 [AI]	–
> 300	52.8	52.8	CC(C)(C)OC(=O)NCc1ccccc1NC(=O)c1cnc2ccccc2c1 [AK]	–
> 300	136	136	NCc1ccccc1NC(=O)c1cnc2ccccc2c1 [AL]	–
> 300	106	106	NCc1ccccc1NC(=O)c1cc2cc([N+](=O)[O-])ccc2s1 [AM]	–
> 300	55.6	55.6	NC(=O)c1ccccc1OC(=O)c1ccc(-c2ccccc2)cc1 [AQ]	–
> 300	67.7	67.7	NC(=O)c1cccc(NC(=O)c2ccc3ccccc3c2)c1 [AT]	–
–	> 500	–	NC(=O)c1ccccc1NC(=O)c1ccc(-c2ccccc2)cc1 [AU]	–
> 300	98.3	98.3	NC(=O)c1ccccc1OC(=O)c1ccc2ccccc2c1 [AX]	–
–	> 500	–	NC(=O)c1ccccc1NC(=O)c1ccc2ccccc2n1 [AY]	–
> 300	54.4	54.4	NC(=O)c1ccc(NC(=O)c2ccc3ccccc3n2)cc1 [BC]	–
–	204	–	CCc1ccccc1NC(=O)c1cnc2ccccc2c1 [BH]	–
> 300	122	122	O=C(Nc1ccccc1Br)c1cc2cc([N+](=O)[O-])ccc2s1 [BI]	–
> 300	56.9	56.9	NC(=O)c1ccc(NC(=O)c2ccc3ccccc3c2O)cc1 [BN]	–
> 300	49.4	49.4	NC(=O)c1cccc(NC(=O)c2ccccc2-c2ccccc2)c1 [BO]	–
> 300	195	195	NC(=O)c1cccc(NC(=O)c2cccc3ccccc23)c1 [BS]	–
–	395	–	NC(=O)c1ccc(NC(=O)c2cc3cc([N+](=O)[O-])ccc3s2)cc1 [BV]	–
> 300	45.6	45.6	NC(=O)c1ccccc1NC(=O)c1cc2ccccc2s1 [Compound 3B]	–
–	> 500	–	COC(=O)c1ccccc1NC(=O)c1cc2cc([N+](=O)[O-])ccc2s1 [Compound 3C]	–
–	> 500	–	O=C(Nc1ccccc1)c1cnc2ccccc2c1 [Compound 3L]	IC50 (S. mutans biofilm; [5]): > 500 µM
–	> 500	–	NC(=O)c1ccc(NC(=O)c2cnc3ccccc3c2)cc1 [Compound 3T]	–
